# Laboratory results reported in patent US20240228488A1 (TAKEDA PHARMACEUTICAL COMPANY LIMITED, priority 2021, published 2024).
# Biological target: human activated kallikrein enzyme (Homo sapiens, UniProt P03952)
# Assay: Plasma kallikrein inhibition, fluorogenic PFR-AMC substrate, 500 pM activated kallikrein format
# Assay type: biochemical
# Conditions: 500 pM activated kallikrein, 300 uM PFR-AMC, 30 min preincubation, 10 min reaction; read-out: Primary Dose Response Assay: Average EC50
# Outline: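 High-enzyme format of the fluorogenic peptide assay, with EC50 taken from AMC signal: 500 pM activated kallikrein, 300 uM Pro-Phe-Arg-AMC, 30 min compound preincubation and 10 min reaction, all at room temperature, pH 7.5.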
# Sequence of human activated kallikrein enzyme (P03952 391-638 limits assumed): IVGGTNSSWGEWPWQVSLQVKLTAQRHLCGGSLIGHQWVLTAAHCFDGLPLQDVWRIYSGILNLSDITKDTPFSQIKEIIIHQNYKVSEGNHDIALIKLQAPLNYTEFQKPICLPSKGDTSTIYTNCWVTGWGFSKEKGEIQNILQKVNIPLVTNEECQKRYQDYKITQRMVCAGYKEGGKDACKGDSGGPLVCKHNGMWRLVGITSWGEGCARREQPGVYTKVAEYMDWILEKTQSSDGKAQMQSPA
# Sequence of human activated kallikrein enzyme (P03952 20-390 partner limits assumed): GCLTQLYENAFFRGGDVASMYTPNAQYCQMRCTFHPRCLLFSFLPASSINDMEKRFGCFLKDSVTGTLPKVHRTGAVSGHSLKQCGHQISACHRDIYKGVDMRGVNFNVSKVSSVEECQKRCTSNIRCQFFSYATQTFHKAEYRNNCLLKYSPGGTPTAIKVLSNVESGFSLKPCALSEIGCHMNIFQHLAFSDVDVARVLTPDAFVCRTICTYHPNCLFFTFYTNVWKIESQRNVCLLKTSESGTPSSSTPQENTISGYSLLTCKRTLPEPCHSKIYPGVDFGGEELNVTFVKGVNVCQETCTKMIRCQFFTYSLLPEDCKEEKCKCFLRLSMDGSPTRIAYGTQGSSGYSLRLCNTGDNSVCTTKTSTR
row,SMILES,EC50 [nM]
1,"Cc1cc(NC(=O)[C@H]2C[C@@H]2c2nccc(C)n2)nc(OCc2cn3cc(C4CC4)cc(N4CC(=O)N(C)C4=O)c3n2)n1 [Example I-652, (1S,2S)—N-(2-((6-cyclopropyl-8-(3-methyl-2,4-dioxoimidazolidin-1-yl)imidazo[1,2-a]pyridin-2-yl)methoxy)-6-methylpyrimidin-4-yl)-2-(4-methylpyrimidin-2-yl)cyclopropane-1-carboxamide]",< 1
2,"Cc1ccnc([C@H]2C[C@@H]2C(=O)Nc2cc(OCc3cn4cc(C5CC5)cc(N5CC(=O)N(C)C5=O)c4n3)nc(C(C)O)n2)n1 (stereo partly drawn) [Example 662, (1S,2S)—N-(6-((6-cyclopropyl-8-(3-methyl-2,4-dioxoimidazolidin-1-yl)imidazo[1,2-a]pyridin-2-yl)methoxy)-2-(1-hydroxyethyl)pyrimidin-4-yl)-2-(4-methylpyrimidin-2-yl)cyclopropane-1-carboxamide]",< 1
3,"CN1CCN(c2cc(C3CC3)cn3cc(CNc4cncc(NC(=O)[C@H]5C[C@@H]5c5cccc(Cl)c5)n4)nc23)CC1 [Example I-255, (1S,2S)-2-(3-chlorophenyl)-N-(6-(((6-cyclopropyl-8-(4-methylpiperazin-1-yl)imidazo[1,2-a]pyridin-2-yl)methyl)amino)pyrazin-2-yl)cyclopropane-1-carboxamide]",1 to 10
4,"Cc1ccnc([C@H]2C[C@@H]2C(=O)Nc2cc(N[C@H](C)c3cn4cc(C5CC5)cc(N5C(=O)N(C)C(=O)C5(C)C)c4n3)nc(C)n2)n1 [Example 432, (1S,2S)-N-(6-(((R)-1-(6-cyclopropyl-8-(3,5,5-trimethyl-2,4-dioxoimidazolidin-1-yl)imidazo[1,2-a]pyridin-2-yl)ethyl)amino)-2-methylpyrimidin-4-yl)-2-(4-methylpyrimidin-2-yl)cyclopropane-1-carboxamide]",< 1
5,"O=C(Nc1cc(NCc2cn3cc(C4CC4)ccc3n2)ncn1)[C@H]1C[C@@H]1c1cccc(Br)c1 (racemic) [Example 54, rac-(1S*,2S*)-2-(3-bromophenyl)-N-(6-(((6-cyclopropylimidazo[1,2-a]pyridin-2-yl)methyl)amino)pyrimidin-4-yl)cyclopropane-1-carboxamide]",10 to 100
6,"CC(C)(C)OC(=O)Nc1cc(C2CC2)cn2cc(CNc3cc(NC(=O)[C@H]4C[C@@H]4c4cccc(Cl)c4)ncn3)nc12 [Example I-156, tert-butyl (2-(((6-((15,2S)-2-(3-chlorophenyl)cyclopropane-1-carboxamido)pyrimidin-4-yl)amino)methyl)-6-cyclopropylimidazo[1,2-a]pyridin-8-yl)carbamate]",100 to 1000
7,"O=C(Nc1cc(NCc2cn3cc(C4CC4)ccc3n2)ncn1)[C@@H]1[C@@H](c2cccc(Cl)c2)C1(F)F (racemic) [Example 503, rac-(1S*,3S*)-3-(3-chlorophenyl)-N-(6-(((6-cyclopropylimidazo[1,2-a]pyridin-2-yl)methyl)amino)pyrimidin-4-yl)-2,2-difluorocyclopropane-1-carboxamide]",1 to 10
8,"CNC(=O)c1cc(C2CC2)cn2cc(CNc3cc(NC(=O)[C@H]4C[C@@H]4c4cccc(Cl)c4)ncn3)nc12 [Example 303, 2-(((6-((1S,2S)-2-(3-chlorophenyl)cyclopropane-1-carboxamido)pyrimidin-4-yl)amino)methyl)-6-cyclopropyl-N-methylimidazo[1,2-a]pyridine-8-carboxamide]",1 to 10
9,"Cc1ccnc([C@H]2C[C@@H]2C(=O)Nc2cn3c(Cc4cn5cc(C6CC6)cc(N6CC(=O)N(C)C6=O)c5n4)nnc3cn2)n1 [Example 630, (1S,2S)—N-(3-((6-cyclopropyl-8-(3-methyl-2,4-dioxoimidazolidin-1-yl)imidazo[1,2-a]pyridin-2-yl)methyl)-[1,2,4]triazolo[4,3-a]pyrazin-6-yl)-2-(4-methylpyrimidin-2-yl)cyclopropane-1-carboxamide]",1 to 10
10,"COc1ccc(=O)n([C@H]2C[C@@H]2C(=O)Nc2cc(NCc3cn4cc(C5CC5)ccc4n3)ncn2)c1 (racemic) [Example I-181, rac-(1S*,2S*)-N-(6-(((6-cyclopropylimidazo[1,2-a]pyridin-2-yl)methyl)amino)pyrimidin-4-yl)-2-(5-methoxy-2-oxopyridin-1(2H)-yl)cyclopropane-1-carboxamide]",> 6000
11,"O=C(Nc1cc(NCc2cn3cc(C4CC4)ccc3n2)ncn1)[C@H]1C[C@@H]1c1cc(Cl)ccc1OC(F)F (racemic) [Example 311, rac-(1S*,2S*)-2-(5-chloro-2-(difluoromethoxy)phenyl)-N-(6-(((6-cyclopropylimidazo[1,2-a]pyridin-2-yl)methyl)amino)pyrimidin-4-yl)cyclopropane-1-carboxamide]",10 to 100
12,"O=C(O)c1cc(C2CC2)cn2cc(CNc3cc(NC(=O)[C@H]4C[C@@H]4c4cccc(Cl)c4)ncn3)nc12 [Example 298, 2-(((6-((1S,2S)-2-(3-chlorophenyl)cyclopropane-1-carboxamido)pyrimidin-4-yl)amino)methyl)-6-cyclopropylimidazo[1,2-a]pyridine-8-carboxylic acid]",1 to 10
13,"Cc1ccnc([C@H]2C[C@@H]2C(=O)Nc2cc(F)cc(OCc3cn4cc(C5CC5)cc(N5CC(=O)N(C)C5=O)c4n3)n2)n1 [Example 675, (1S,2S)—N-(6-((6-cyclopropyl-8-(3-methyl-2,4-dioxoimidazolidin-1-yl)imidazo[1,2-a]pyridin-2-yl)methoxy)-4-fluoropyridin-2-yl)-2-(4-methylpyrimidin-2-yl)cyclopropane-1-carboxamide]",< 1
14,"O=C(Nc1cc(NCc2cn3cc(C4CC4)ccc3n2)ccn1)[C@@H]1C[C@]12CCc1ccc(Cl)cc12 (racemic) [Example I-271, rac-(1S*,2S*)-6′-chloro-N-(4-(((6-cyclopropylimidazo[1,2-a]pyridin-2-yl)methyl)amino)pyridin-2-yl)-2′,3′-dihydrospiro[cyclopropane-1,1′-indene]-2-carboxamide]",< 1
15,"N#Cc1cc(C2CC2)cn2cc(CNc3ccnc(NC(=O)[C@@H]4C[C@H]4c4cccc(Cl)c4)c3)nc12 (racemic) [Example 119, rac-(1S*,2S*)-2-(3-chlorophenyl)-N-(4-(((8-cyano-6-cyclopropylimidazo[1,2-a]pyridin-2-yl)methyl)amino)pyridin-2-yl)cyclopropane-1-carboxamide]",1 to 10
16,"Cc1ccnc([C@H]2C[C@@H]2C(=O)Nc2nccn3nc(Cc4cn5cc(C6CC6)cc(N6CC(=O)N(C)C6=O)c5n4)cc23)n1 [Example I-649, (1S,2S)—N-(2-((6-cyclopropyl-8-(3-methyl-2,4-dioxoimidazolidin-1-yl)imidazo[1,2-a]pyridin-2-yl)methyl)pyrazolo[1,5-a]pyrazin-4-yl)-2-(4-methylpyrimidin-2-yl)cyclopropane-1-carboxamide]",< 1
17,"CCOC(=O)CCc1cc(C2CC2)cn2cc(CNc3cc(NC(=O)[C@H]4C[C@@H]4c4cccc(Cl)c4)ncn3)nc12 (racemic) [Example 61, rac-ethyl 3-(2-(((6-((1S*,2S*)-2-(3-chlorophenyl)cyclopropane-1-carboxamido)pyrimidin-4-yl)amino)methyl)-6-cyclopropylimidazo[1,2-α]pyridin-8-yl)propanoate]",1 to 10
18,"COc1ccc(Cl)cc1[C@H]1C[C@@H]1C(=O)Nc1cc(NCc2cn3cc(C4CC4)ccc3n2)ncn1 (racemic) [Example 47, rac-(1S*,2S*)-2-(5-chloro-2-methoxyphenyl)-N-(6-(((6-cyclopropylimidazo[1,2-a]pyridin-2-yl)methyl)amino)pyrimidin-4-yl)cyclopropane-1-carboxamide]",100 to 1000
19,"C[C@H]1[C@H](C(=O)Nc2cc(NCc3cn4cc(C5CC5)ccc4n3)ncn2)[C@H]1c1cccc(Cl)c1 (single isomer, unassigned) [Example 506, (1R*,2R*,3S*)-2-(3-chlorophenyl)-N-(6-(((6-cyclopropylimidazo[1,2-a]pyridin-2-yl)methyl)amino)pyrimidin-4-yl)-3-methylcyclopropane-1-carboxamide]",> 6000
20,"Cc1ccnc([C@H]2C[C@@H]2C(=O)Nc2cc(OC(C)c3cn4cc(C5CC5)cc(N5CC(=O)NC5=O)c4n3)cnn2)n1 (stereo partly drawn) [Example 39, (1S,2S)—N-(5-(1-(6-cyclopropyl-8-(2,4-dioxoimidazolidin-1-yl)imidazo[1,2-a]pyridin-2-yl)ethoxy)pyridazin-3-yl)-2-(4-methylpyrimidin-2-yl)cyclopropane-1-carboxamide]",1 to 10
21,"O=C(Nc1nccc(NCc2cn3cc(C4CC4)ccc3n2)n1)[C@H]1C[C@@H]1c1cccc(Cl)c1 (racemic) [Example 346, (rac-(1S*,2S*))-2-(3-chlorophenyl)-N-(4-(((6-cyclopropylimidazo[1,2-a]pyridin-2-yl)methyl)amino)pyrimidin-2-yl)cyclopropane-1-carboxamide]",1 to 10
22,"Cc1cc(N2CC3CC3C2=O)c2nc([C@@H](C)Nc3cc(NC(=O)[C@H]4C[C@@H]4c4nccc(C)n4)nc(C)n3)cn2c1 (stereo partly drawn) [Example 430, (1S,2S)-N-(2-methyl-6-(((1R)-1-(6-methyl-8-(2-oxo-3-azabicyclo[3.1.0]hexan-3-yl)imidazo[1,2-a]pyridin-2-yl)ethyl)amino)pyrimidin-4-yl)-2-(4-methylpyrimidin-2-yl)cyclopropane-1-carboxamide]",1 to 10
